Read-outs that look alike come from different tables or passages of the source.
Experiments:
AeNobo-WT = AeNobo-WT (Aedes aegypti, UniProt A0A1S4FIB3); assay: GST activity inhibition assay with 3,4-DNADCF, wild-type AeNobo; type: biochemical
Protocol: We prepared a purified AeNobo recombinant protein (220-aa length) using an Escherichia coli protein expression system. The GST enzymatic activity was examined using the fluorogenic artificial substrate 3,4-dinitrobenzamidedichlorofluorescein (3,4-DNADCF).
The IC50 value was measured using an in vitro assay system as described previously. […] Five microliters of each diluted compound solution was mixed with 245 μL of solution A (100 mM sodium phosphate buffer at pH 6.5, 0.01% Tween 20, 2 mM GSH, and 50 ng/mL AeNobo-WT, 100 ng/mL AeNobo-E113A, and 200 ng/mL F39L). One hundred microliters of the mixture was dispensed into wells of a 96-well plate. One hundred microliters of solution B (0.2 μM 3,4-DNADCF and 100 mM sodium phosphate buffer at pH 6.5) was added to each well. In summary, the final reaction system comprised 100 mM sodium phosphate buffer (pH 6.5), 1 mM GSH, 0.005% Tween 20, 0.1 μM 3,4-DNACDF, and 25 ng/mL AeNobo, 50 ng/mL AeNobo-E113A, or 100 ng/mL AeNobo-F39L protein. The fluorescence intensity derived from 4-GS-3-NADCF, a product of this reaction, was measured for 3 min. IC50 values were estimated as described previously. The enzymatic assays under each condition were performed at least twice independently.
To identify inhibitors of AeNobo enzymatic activity, a high-throughput screening was performed as described in a previous study. Briefly, a core library of 9600 compounds obtained from the Drug Discovery Initiative, The University of Tokyo, was utilized for screening. In this screen, the enzymatic activity of AeNobo was detected using 3,4-DNADCF [29]. […] Then, 1 μL of solution B (4 μM 3,4-DNADCF, 100 mM sodium phosphate at pH 6.5, and 0.005% Tween 20) was added into each well. In summary, the reaction system comprised 5.6 ng/mL AeNobo protein, 2 μM 3,4-DNADCF, 1 mM GSH, 0.005% Tween 20, and 100 mM sodium phosphate at pH 6.5, together with each compound at 10 μM. The plate was incubated for 30 min at 25–27 °C and 2 μL of 10 mM N-ethylmaleimide was added into each well to stop the reaction. […] For the second screen, we assayed the IC50 values of the compounds against the enzymatic activity of AeNobo.

DmNobo [1] = molecular target: T1, DmNobo (Drosophila melanogaster, UniProt Q7JYX0); assay: GST activity inhibition assay with 3,4-DNADCF, DmNobo; type: biochemical
T1 construct: made in house; host or cells: E. coli
T1 sequence (Q7JYX0 whole entry): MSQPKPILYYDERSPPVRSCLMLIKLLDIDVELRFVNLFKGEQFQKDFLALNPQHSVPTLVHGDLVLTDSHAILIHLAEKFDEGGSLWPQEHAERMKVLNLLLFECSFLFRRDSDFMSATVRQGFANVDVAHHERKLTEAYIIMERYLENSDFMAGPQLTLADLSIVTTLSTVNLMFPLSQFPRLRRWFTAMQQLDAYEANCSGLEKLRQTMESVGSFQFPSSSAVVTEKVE

DmNobo [2] = molecular target: T1, DmNobo; settings: read-out: IC50 against DmNobo; cited from earlier work
[3] = tested on: DmNobo Asp-113 substituted with Ala; parameters: method as in PMID 32241910; settings: cited from earlier work
AeNobo-E113A = AeNobo-E113A (Aedes aegypti, UniProt A0A1S4FIB3, E164K); assay: GST activity inhibition assay with 3,4-DNADCF, AeNobo-E113A; type: biochemical; settings: at a concentration of 25 μM
Sequence of AeNobo-E113A (A0A1S4FIB3 entry or part of it E164K): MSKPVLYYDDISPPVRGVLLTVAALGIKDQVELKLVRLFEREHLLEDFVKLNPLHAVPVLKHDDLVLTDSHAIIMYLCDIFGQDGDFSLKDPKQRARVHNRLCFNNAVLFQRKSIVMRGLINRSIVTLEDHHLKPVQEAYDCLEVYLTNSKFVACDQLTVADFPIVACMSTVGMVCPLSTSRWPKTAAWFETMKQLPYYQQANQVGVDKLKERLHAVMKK
Description: The importance of the Glu-113–flavonoid hydrogen bond for flavonoid binding was biochemically examined with a recombinant mutated AeNobo protein carrying an E113A aa substitution (AeNobo-E113A).
(§1) pCold III plasmids expressing the AeNobo-E113A and AeNobo-F39L were constructed using KOD-Plus-Mutagenesis Kit (Toyobo). The following primers were used: E113A-F (5′-[…]-3′) and E113A-R (5′-[…]-3′) for AeNobo-E113A and F39L-F (5′-[…]-3′) and F39L-R (5′-[…]-3′) for AeNobo-F39L. We conducted inverse PCR using KOD-plus polymerase, pColdIII/AeNobo-WT plasmid, and the primer pair described above under the following conditions: pre-denaturation at 94 °C for 2 min, denaturation at 98 °C for 10 s, and extension at 68 °C for 6 min for 6 cycles. The PCR products were treated with DpnI at 37 °C for 1 h, followed by self-ligation using T4 polynucleotide kinase and Ligation High. After the transformation of DH5α bacteria using the ligation products, we extracted plasmid DNA from the colonies and verified their sequences to confirm whether the appropriate point mutations were introduced.
The IC50 value was measured using an in vitro assay system as described previously. A dilution series of compounds, ranging from 2.5 mM to 0.127 μM for DMG and from 2.5 mM to 4.9 μM for other compounds, was prepared by 2-fold serial dilution in DMSO. Five microliters of each diluted compound solution was mixed with 245 μL of solution A (100 mM sodium phosphate buffer at pH 6.5, 0.01% Tween 20, 2 mM GSH, and 50 ng/mL AeNobo-WT, 100 ng/mL AeNobo-E113A, and 200 ng/mL F39L). One hundred microliters of the mixture was dispensed into wells of a 96-well plate. One hundred microliters of solution B (0.2 μM 3,4-DNADCF and 100 mM sodium phosphate buffer at pH 6.5) was added to each well. In summary, the final reaction system comprised 100 mM sodium phosphate buffer (pH 6.5), 1 mM GSH, 0.005% Tween 20, 0.1 μM 3,4-DNACDF, and 25 ng/mL AeNobo, 50 ng/mL AeNobo-E113A, or 100 ng/mL AeNobo-F39L protein. The fluorescence intensity derived from 4-GS-3-NADCF, a product of this reaction, was measured for 3 min. IC50 values were estimated as described previously. The enzymatic assays under each condition were performed at least twice independently.

AeNobo-F39L = AeNobo-F39L (Aedes aegypti, UniProt A0A1S4FIB3, F90L); assay: GST activity inhibition assay with 3,4-DNADCF, AeNobo-F39L; type: biochemical
Sequence of AeNobo-F39L (A0A1S4FIB3 entry or part of it F90L): as the sequence (A0A1S4FIB3 entry or part of it E164K) above, with F39L, K113E counted along it
Protocol: as §1
The IC50 value was measured using an in vitro assay system as described previously. A dilution series of compounds, ranging from 2.5 mM to 0.127 μM for DMG and from 2.5 mM to 4.9 μM for other compounds, was prepared by 2-fold serial dilution in DMSO. […] The fluorescence intensity derived from 4-GS-3-NADCF, a product of this reaction, was measured for 3 min. […]

[4] = tested on: Ae. aegypti 1st instar larvae; assay: Aedes aegypti larvicidal assay; type: in vivo; settings: above 10 ppm, 24-h treatment
Protocol: To test this, we conducted larvicidal assays using Ae. aegypti larvae.
The dried eggs on filter papers were soaked in distilled water. Three hours after soaking, the first instar larvae were transferred to 30 mL of fresh distilled water in a 50-mL plastic cup with a lid containing air holes. In the rearing water, 2 mg of the powdered goldfish food (Hikari Medium Grain, Kyorin Co., Ltd.) was added to each cup as food for Ae. aegypti larvae. In each cup, we poured the 30 mL rearing water containing 1 ppm, 10 ppm, or 100 ppm of the compounds with 0.1% ethanol at the final concentration, followed by placing 20 larvae. Twenty-four hours after the addition of flavonoids, the number of living and dead larvae was recorded. Larvacidal assays under each condition were performed 5 times independently. The larval instars 24 h after the addition of DMG were identified by measuring the transverse diameter of the Ae. aegypti larval head. Photographs of whole bodies of larvae were taken and the head diameter was then measured using ImageJ software.

[5] = tested on: D. melanogaster 1st instar larvae; assay: Drosophila melanogaster survival assay; type: in vivo; settings: 10 ppm in food
Protocol: We also conducted larvicidal assays using D. melanogaster. When we placed D. melanogaster 1st instar larvae in food containing 10 ppm DMG, pupariation rate and pupation timing were not affected when compared with a control group (Additional file 1: Figure S10). […] A […] DMG stock solution was prepared in 100% DMSO. Ten microliters of the DMG stock solution or 10 μL of DMSO alone was mixed with 10 g of standard cornmeal medium and 1 mL of autoclaved water. The volume of the mixed food was approximately 10 mL, and therefore, the food contained 0.1% DMSO with or without 10 ppm DMG. Two grams of the food were dispensed into each 12-mL plastic vial (Sarstedt). D. melanogaster wild-type Canton-S were given the opportunity to lay eggs on a grape juice agar with yeast paste for 12 h. After egg collection, the embryos were reared at 25 °C for 24 h, and then 20 1st instar larvae were transferred to each vial and reared at 25°C. The numbers of pupae were counted daily, and the timing of pupation was recorded.

estrogen receptors (ERs) = settings: does not promote ER binding activity to estrogen response elements; cited from earlier work

Sequence of AeNobo-WT (A0A1S4FIB3 entry or part of it): as the sequence (A0A1S4FIB3 entry or part of it E164K) above, with K113E counted along it

## C[C@]12CC[C@@H]3c4ccc(O)cc4CC[C@H]3[C@@H]1CC[C@@H]2O [17β-estradiol]
AeNobo-WT; higher against AeNobo
  IC50 against AeNobo relative to that against DmNobo: approximately 10 fold
AeNobo-WT; text and figures, 3,4-DNADCF, read-out: IC50 against AeNobo (WT)
  IC50: 21.3 µM
DmNobo [1]
  IC50: 2.33 ± 0.08 µM
DmNobo [2]
  IC50: 1.2 to 2.3 µM
[3]
  Inhibition of enzymatic activity of DmNobo with Asp-113 substituted with Ala: does not inhibit

## O=c1c(-c2ccc(O)cc2)coc2cc(O)c(O)cc12 [Desmethylglycitein, 4′,6,7-trihydroxyisoflavone]
AeNobo-WT; read-out: IC50 (μM) (mean ± s.d.)
  IC50: 0.293 ± 0.012 µM
AeNobo-E113A
  Inhibition of enzymatic activity of AeNobo-E113A: not inhibited
AeNobo-F39L
  IC50: 1.16 µM
[4]
  Lethality: high lethality
[5]
  Development to adults: most larvae became adults
[5]; 1st instar larvae
  Pupariation rate and pupation timing compared with control: not affected
Estrogen receptors (ERs)
  Estrogenic activity: does not exhibit estrogenic activity
